Measured values: patent US9199946B2, “Pyrimidinone carboxamide inhibitors of endothelial lipase” (BRISTOL-MYERS SQUIBB COMPANY, priority 2012, dated 2015)

target: T1, Endothelial lipase (EL) (Homo sapiens, UniProt Q9Y5X9); experiment: Endothelial lipase (EL) enzymatic assay with fluorescent substrate A10070 in DMPG vesicles; assay type: biochemical; details: conditioned media from HT-1080 cells overexpressing endogenous EL; 20 min preincubation at 37° C.; read-out: EL IC50
T1 construct: HT-1080 cells, which were transformed by RAGE technology (Athersys) to overexpress endogenous EL; endogenous in cells; conditioned medium used as the enzyme source
T1 sequence (Q9Y5X9 21-500): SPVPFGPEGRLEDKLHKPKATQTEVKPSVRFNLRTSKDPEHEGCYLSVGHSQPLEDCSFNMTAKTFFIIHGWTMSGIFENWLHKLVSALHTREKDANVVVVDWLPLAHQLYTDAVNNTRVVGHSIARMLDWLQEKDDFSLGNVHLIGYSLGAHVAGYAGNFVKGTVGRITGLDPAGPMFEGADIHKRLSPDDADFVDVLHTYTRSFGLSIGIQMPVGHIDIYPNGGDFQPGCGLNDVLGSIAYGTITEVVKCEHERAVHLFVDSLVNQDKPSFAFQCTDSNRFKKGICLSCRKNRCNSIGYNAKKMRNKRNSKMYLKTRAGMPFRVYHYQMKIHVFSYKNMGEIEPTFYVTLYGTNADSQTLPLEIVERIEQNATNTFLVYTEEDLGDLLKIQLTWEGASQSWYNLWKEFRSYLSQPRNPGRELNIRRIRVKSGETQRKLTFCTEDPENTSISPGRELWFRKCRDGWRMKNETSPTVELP
Experimental: Endothelial lipase activity was measured using a fluorescent substrate, A10070, (Invitrogen, CA) doped into an artificial vesicle containing DMPG (Avanti Polar Lipids) as the excipient. Vesicles were prepared by combining 285 μL of 1 mM DMPG in a 1:1 mixture of MeOH and CHCl3 with 15 μL of 1 mM A10070 in a 1:1 mixture of MeOH and CHCl3. The mixture was dried under nitrogen and resuspended in 150 μL of 50 mM HEPES pH 8.0 buffer containing 100 mM NaCl and 0.2 mM EDTA. The sample was allowed to sit at rt for 15 min and then was sonicated 3×4 mins on ice with a Branson Sonicator using duty cycle 1. This preparation provides vesicles with a mole fraction of 0.05 for the FRET substrate.
The enzymatic assay was measured using white, opaque 96-well half area plates. Each well contained 60 μL of assay buffer (50 mM HEPES pH 8.0, 50 mM NaCl and 1 mM CaCl2) and 2 ul of a DMSO solution containing compound of interest. Conditioned media obtained from HT-1080 cells, which were transformed by RAGE technology (Athersys) to overexpress endogenous EL, was added and the reaction was allowed to incubate for 20 min at 37° C. with gentle agitation. The reaction was started by the addition of 20 μL of a 1:4 dilution of vesicles. The final total reaction volume was 100 μL. The reaction rates were measured on a Gemini plate reader with an excitation wavelength of 488 nm and an emission of 530 nm. Readings were taken every 20 seconds for 10 min with agitation between each reading. The slope of the linear portion of the readout was used to calculate the rate of the reaction.

| SMILES | IC50 |
| --- | --- |
| Nc1c(C(=O)N[C@H]2CCc3ccc(C(F)(F)F)cc32)[nH]c(=O)[nH]c1=O [Example 15, (S)-5-amino-2,6-dioxo-N-(6-(trifluoromethyl)-2,3-dihydro-1H-inden-1-yl)-1,2,3,6-tetrahydropyrimidine-4-carboxamide] | 13 µM |
| Cc1ccc(S(=O)(=O)Nc2ccc(C3CCCC(NC(=O)c4[nH]c(=O)[nH]c(=O)c4N)C3)cc2)cc1 (stereo not shown) [Example 128, 5-amino-N-(3-(4-(4-methylphenylsulfonamido)phenyl)cyclohexyl)-2,6-dioxo-1,2,3,6-tetrahydropyrimidine-4-carboxamide] | 0.013 µM |

Further lines, results first:

| IC50 | SMILES |
| --- | --- |
| 1.09 µM | Nc1c(C(=O)N[C@H]2CC[C@@H](c3ccc(-c4ccnn4C4CCCCO4)cc3)C2)[nH]c(=O)[nH]c1=O (stereo partly drawn) [Example 176, 5-amino-2,6-dioxo-N-((1S,3R)-3-(4-(1-(tetrahydro-2H-pyran-2-yl)-1H-pyrazol-5-yl)phenyl)cyclopentyl)-1,2,3,6-tetrahydropyrimidine-4-carboxamide] |
| 0.291 µM | O=C(N[C@H]1CC[C@@H](c2ccccc2)CC1)c1[nH]c(=O)[nH]c(=O)c1NCCN1CCOCC1 [Example 211, 5-(2-morpholinoethylamino)-2,6-dioxo-N-(cis-4-phenylcyclohexyl)-1,2,3,6-tetrahydropyrimidine-4-carboxamide] |
| 0.01 µM | O=C(N[C@H]1CCc2ccc(OCc3ccccc3)cc21)c1[nH]c(=O)[nH]c(=O)c1O [Example 259, (S)-N-(6-(benzyloxy)-2,3-dihydro-1H-inden-1-yl)-5-hydroxy-2,6-dioxo-1,2,3,6-tetrahydropyrimidine-4-carboxamide] |
| 0.788 µM | Nc1c(C(=O)N[C@@H]2CC[C@H](c3ccc(-c4cnn(CCN5CCOCC5)c4)cc3)C2)[nH]c(=O)[nH]c1=O [Example 164, 5-amino-N-((1R,3S)-3-(4-(1-(2-morpholinoethyl)-1H-pyrazol-4-yl)phenyl)cyclopentyl)-2,6-dioxo-1,2,3,6-tetrahydropyrimidine-4-carboxamide] |

same assay, conditions: range observed in the EL assay; read-out: EL IC50 values

| SMILES | IC50 |
| --- | --- |
| Nc1c(C(=O)N[C@@H]2CCCc3ccccc32)[nH]c(=O)[nH]c1=O [Example 13, (R)-5-amino-2,6-dioxo-N-(1,2,3,4-tetrahydronaphthalen-1-yl)-1,2,3,6-tetrahydropyrimidine-4-carboxamide] | ≤ 10 µM |
| COc1ccc2c(c1)CCCC2NC(=O)c1[nH]c(=O)[nH]c(=O)c1N (stereo not shown) [Example 31, 5-amino-N-(6-methoxy-1,2,3,4-tetrahydronaphthalen-1-yl)-2,6-dioxo-1,2,3,6-tetrahydropyrimidine-4-carboxamide] | ≤ 10 µM |
| Nc1c(C(=O)N[C@@H]2CCCc3ccc(F)cc32)[nH]c(=O)[nH]c1=O [Example 40, (R)-5-amino-N-(7-fluoro-1,2,3,4-tetrahydronaphthalen-1-yl)-2,6-dioxo-1,2,3,6-tetrahydropyrimidine-4-carboxamide] | ≤ 10 µM |
| Nc1c(C(=O)N[C@H]2CC[C@@H](NC(=O)Cc3ccccc3)CC2)[nH]c(=O)[nH]c1=O [Example 116, 5-amino-2,6-dioxo-N-(cis-4-(2-phenylacetamido)cyclohexyl)-1,2,3,6-tetrahydropyrimidine-4-carboxamide] | ≤ 10 µM |
| Nc1c(C(=O)N[C@@H]2CCc3ccc(OCc4ccccc4)cc32)[nH]c(=O)[nH]c1=O [Example 91, (R)-5-amino-N-(6-(benzyloxy)-2,3-dihydro-1H-inden-1-yl)-2,6-dioxo-1,2,3,6-tetrahydropyrimidine-4-carboxamide] | ≤ 10 µM |
| Nc1c(C(=O)N[C@@H]2CCCc3c(OCC(F)(F)F)cccc32)[nH]c(=O)[nH]c1=O [Example 36, (R)-5-amino-2,6-dioxo-N-(5-(2,2,2-trifluoroethoxy)-1,2,3,4-tetrahydronaphthalen-1-yl)-1,2,3,6-tetrahydropyrimidine-4-carboxamide] | ≤ 10 µM |
| Nc1c(C(=O)N[C@@H]2CC[C@H](c3ccccc3)C2)[nH]c(=O)[nH]c1=O [Example 75, 5-amino-2,6-dioxo-N-((1R,3S)-3-phenylcyclopentyl)-1,2,3,6-tetrahydropyrimidine-4-carboxamide] | ≤ 10 µM |
| Nc1c(C(=O)N[C@@H]2CCCc3c(-c4ccccc4)cccc32)[nH]c(=O)[nH]c1=O [Example 112, (R)-5-amino-2,6-dioxo-N-(5-phenyl-1,2,3,4-tetrahydronaphthalen-1-yl)-1,2,3,6-tetrahydropyrimidine-4-carboxamide] | ≤ 10 µM |
| Nc1c(C(=O)N[C@H]2CCCc3c2cccc3C(F)(F)F)[nH]c(=O)[nH]c1=O [Example 50, (S)-5-amino-2,6-dioxo-N-(5-(trifluoromethyl)-1,2,3,4-tetrahydronaphthalen-1-yl)-1,2,3,6-tetrahydropyrimidine-4-carboxamide] | ≤ 10 µM |
| Cc1ccc(S(=O)(=O)Nc2ccc(C3CCCC(NC(=O)c4[nH]c(=O)[nH]c(=O)c4N)C3)cc2)cc1 (stereo not shown) [Example 128, 5-amino-N-(3-(4-(4-methylphenylsulfonamido)phenyl)cyclohexyl)-2,6-dioxo-1,2,3,6-tetrahydropyrimidine-4-carboxamide] | ≤ 10 µM |

The remaining lines, values ahead:

| IC50 | SMILES |
| --- | --- |
| ≤ 10 µM | O=C(NC1CCCc2c(-c3ccccc3)cccc21)c1[nH]c(=O)[nH]c(=O)c1O (stereo not shown) [Example 285, 5-hydroxy-2,6-dioxo-N-(5-phenyl-1,2,3,4-tetrahydronaphthalen-1-yl)-1,2,3,6-tetrahydropyrimidine-4-carboxamide] |
| ≤ 10 µM | O=C(Cc1ccccc1)N[C@H]1CC[C@@H](NC(=O)c2[nH]c(=O)[nH]c(=O)c2O)CC1 [Example 279, 5-hydroxy-2,6-dioxo-N-(cis-4-(2-phenylacetamido)cyclohexyl)-1,2,3,6-tetrahydropyrimidine-4-carboxamide] |
| ≤ 10 µM | Nc1c(C(=O)N[C@H]2CC[C@@H](c3ccc(-c4ccnn4C4CCCCO4)cc3)C2)[nH]c(=O)[nH]c1=O (stereo partly drawn) [Example 176, 5-amino-2,6-dioxo-N-((1S,3R)-3-(4-(1-(tetrahydro-2H-pyran-2-yl)-1H-pyrazol-5-yl)phenyl)cyclopentyl)-1,2,3,6-tetrahydropyrimidine-4-carboxamide] |
| ≤ 10 µM | O=C(N[C@H]1CC[C@H](c2ccccc2)C1)c1[nH]c(=O)[nH]c(=O)c1O [Example 275, 5-hydroxy-2,6-dioxo-N-((1S,3S)-3-phenylcyclopentyl)-1,2,3,6-tetrahydropyrimidine-4-carboxamide] |
| ≤ 10 µM | O=C(N[C@H]1CC[C@@H](c2ccccc2)CC1)c1[nH]c(=O)[nH]c(=O)c1NCCN1CCOCC1 [Example 211, 5-(2-morpholinoethylamino)-2,6-dioxo-N-(cis-4-phenylcyclohexyl)-1,2,3,6-tetrahydropyrimidine-4-carboxamide] |
| ≤ 10 µM | O=C(N[C@H]1CCc2ccc(OCc3ccccc3)cc21)c1[nH]c(=O)[nH]c(=O)c1O [Example 259, (S)-N-(6-(benzyloxy)-2,3-dihydro-1H-inden-1-yl)-5-hydroxy-2,6-dioxo-1,2,3,6-tetrahydropyrimidine-4-carboxamide] |
| ≤ 10 µM | CC(C)Oc1ccc(C2CCC(NC(=O)c3[nH]c(=O)[nH]c(=O)c3O)C2)cc1 (stereo not shown) [Example 294, 5-hydroxy-N-(3-(4-isopropoxyphenyl)cyclopentyl)-2,6-dioxo-1,2,3,6-tetrahydropyrimidine-4 carboxamide] |
| ≤ 10 µM | O=C(N[C@H]1CC[C@@H](c2ccccc2)CC1)c1[nH]c(=O)[nH]c(=O)c1NCC(F)(F)F [Example 228, 2,6-dioxo-N-(cis-4-phenylcyclohexyl)-5-(2,2,2-trifluoroethylamino)-1,2,3,6-tetrahydropyrimidine-4-carboxamide] |
| ≤ 10 µM | O=C(N[C@H]1C[C@@H](c2ccccc2)c2ccccc21)c1[nH]c(=O)[nH]c(=O)c1O [Example 247, 5-hydroxy-2,6-dioxo-N-((1S,3S)-3-phenyl-2,3-dihydro-1H-inden-1-yl)-1,2,3,6-tetrahydropyrimidine-4-carboxamide] |
| ≤ 10 µM | O=C(N[C@@H]1CC[C@@H](C(=O)Nc2cnn(Cc3ccccc3)c2)C1)c1[nH]c(=O)[nH]c(=O)c1O [Example 295, N-((1R,3R)-3-(1-benzyl-1H-pyrazol-4-ylcarbamoyl)cyclopentyl)-5-hydroxy-2,6-dioxo-1,2,3,6-tetrahydropyrimidine-4-carboxamide] |
| ≤ 10 µM | Nc1c(C(=O)N[C@H]2CC[C@H](C(=O)Nc3ccccc3)C2)[nH]c(=O)[nH]c1=O [Example 129, 5-amino-2,6-dioxo-N-((1S,3S)-3-(phenylcarbamoyl)cyclopentyl)-1,2,3,6-tetrahydropyrimidine-4-carboxamide] |
| ≤ 10 µM | Nc1c(C(=O)N[C@@H]2CC[C@H](c3ccc(-c4cnn(CCN5CCOCC5)c4)cc3)C2)[nH]c(=O)[nH]c1=O [Example 164, 5-amino-N-((1R,3S)-3-(4-(1-(2-morpholinoethyl)-1H-pyrazol-4-yl)phenyl)cyclopentyl)-2,6-dioxo-1,2,3,6-tetrahydropyrimidine-4-carboxamide] |
| ≤ 10 µM | COc1cccc2c1CCCC2NC(=O)c1[nH]c(=O)[nH]c(=O)c1N (single isomer, unassigned; enantiomer a) [Example 198, 5-amino-N-(5-methoxy-1,2,3,4-tetrahydronaphthalen-1-yl)-2,6-dioxo 1,2,3,6-tetrahydropyrimidine-4-carboxamide (Enantiomer A)] |
| ≤ 10 µM | COc1ccc2c(c1)CCCC2NC(=O)c1[nH]c(=O)[nH]c(=O)c1N (single isomer, unassigned; enantiomer a) [Example 194, 5-amino-N-(6-methoxy-1,2,3,4-tetrahydronaphthalen-1-yl)-2,6-dioxo-1,2,3,6-tetrahydropyrimidine-4-carboxamide (Enantiomer A)] |
| ≤ 10 µM | O=C(N[C@H]1CC[C@@H](c2cccc(C(F)(F)F)c2)CC1)c1[nH]c(=O)[nH]c(=O)c1O [Example 257, 5-hydroxy-2,6-dioxo-N-((1s,4s)-4-(3-(trifluoromethyl)phenyl)cyclohexyl)-1,2,3,6-tetrahydropyrimidine-4-carboxamide] |
